Results from ChEMBL document CHEMBL5346933, “Design and synthesis of novel arylurea derivatives of aryloxy(1-phenylpropyl) alicyclic diamines with antimicrobial activity against multidrug-resistant Gram-positive bacteria” (Eur J Med Chem, 2023).
In brackets after ≈: the same amount, converted by molar mass. Activity calls are given as the source filed them. The calls are words filed in the database; no cut-off is given here.

How the values were obtained:
[1] = system: Cell membrane; assay: Induction of cell membrane depolarization in Staphylococcus aureus Newman assessed as bacterial cells with polarized membrane potential at 500 uM incubated for 25 to 30 mins by DiOC2(3) probe based flow cytometry (reference value: 94.3%); format: subcellular; conditions: time 25-30 min
[2] = system: Cell membrane; assay: Induction of cell membrane depolarization in Staphylococcus aureus Newman assessed as bacterial cells with depolarized membrane potential at 500 uM incubated for 25 to 30 mins by DiOC2(3) probe based flow cytometry (reference value: 1.6%); format: subcellular; conditions: time 25-30 min
[3] = system: Cell membrane; assay: Induction of cell membrane depolarization in methicillin-resistant Staphylococcus aureus 19449 assessed as bacterial cells with polarized membrane potential at 500 uM incubated for 25 to 30 mins by DiOC2(3) probe based flow cytometry (reference value: 98.8%); format: subcellular; conditions: time 25-30 min
[4] = system: Cell membrane; assay: Induction of cell membrane depolarization in methicillin-resistant Staphylococcus aureus 19449 assessed as bacterial cells with depolarized membrane potential at 500 uM incubated for 25 to 30 mins by DiOC2(3) probe based flow cytometry (reference value: 0.7%); format: subcellular; conditions: time 25-30 min
[5] = system: Cell membrane; assay: Induction of cell membrane depolarization in vancomycin-resistant Enterococcus faecium clinical strain assessed as bacterial cells with polarized membrane potential at 500 uM incubated for 25 to 30 mins by DiOC2(3) probe based flow cytometry (reference value: 96.8%); format: subcellular; conditions: time 25-30 min
[6] = system: Cell membrane; assay: Induction of cell membrane depolarization in vancomycin-resistant Enterococcus faecium clinical strain assessed as bacterial cells with depolarized membrane potential at 500 uM incubated for 25 to 30 mins by DiOC2(3) probe based flow cytometry (reference value: 0.8%); format: subcellular; conditions: time 25-30 min
[7] = system: Cell membrane; assay: Induction of cell membrane depolarization in Staphylococcus aureus Newman assessed as ratio of red to green fluorescence intensity at 500 uM incubated for 25 to 30 mins by DiOC2(3) probe based flow cytometry; format: subcellular; conditions: time 25-30 min
[8] = system: Cell membrane; assay: Induction of cell membrane depolarization in methicillin-resistant Staphylococcus aureus 19449 assessed as ratio of red to green fluorescence intensity at 500 uM incubated for 25 to 30 mins by DiOC2(3) probe based flow cytometry; format: subcellular; conditions: time 25-30 min
[9] = system: Cell membrane; assay: Induction of cell membrane depolarization in vancomycin-resistant Enterococcus faecium clinical strain assessed as ratio of red to green fluorescence intensity at 500 uM incubated for 25 to 30 mins by DiOC2(3) probe based flow cytometry; format: subcellular; conditions: time 25-30 min
[10] = system: Staphylococcus aureus; assay: Antibacterial activity against methicillin-susceptible Staphylococcus aureus ATCC 25923 assessed as inhibition of bacterial growth incubated for 18 hrs by broth microdilution method; format: functional
[11] = system: Staphylococcus epidermidis; assay: Antibacterial activity against methicillin-susceptible Staphylococcus epidermidis ATCC 12228 assessed as inhibition of bacterial growth incubated for 18 hrs by broth microdilution method; format: functional
[12] = system: Streptococcus pneumoniae; assay: Antibacterial activity against Streptococcus pneumoniae ATCC 49619 assessed as inhibition of bacterial growth incubated for 18 hrs by broth microdilution method; format: functional
[13] = system: Staphylococcus aureus; assay: Antibacterial activity against methicillin-resistant Staphylococcus aureus clinical strain 19449 assessed as inhibition of bacterial growth incubated for 18 hrs by broth microdilution method; format: functional
[14] = system: Staphylococcus aureus; assay: Antibacterial activity against vancomycin-intermediate Staphylococcus aureus ATCC 700699 assessed as inhibition of bacterial growth incubated for 18 hrs by broth microdilution method; format: functional
[15] = system: Staphylococcus epidermidis; assay: Antibacterial activity against linezolid-resistant Staphylococcus epidermidis NIL 4399/19 assessed as inhibition of bacterial growth incubated for 18 hrs by broth microdilution method; format: functional
[16] = system: Staphylococcus aureus; assay: Antibacterial activity against biofilm producer Staphylococcus aureus RN450 assessed as inhibition of bacterial growth incubated for 18 hrs by broth microdilution method; format: functional
[17] = system: Staphylococcus epidermidis; assay: Antibacterial activity against biofilm producer Staphylococcus epidermidis ATCC 35984 assessed as inhibition of bacterial growth incubated for 18 hrs by broth microdilution method; format: functional
[18] = system: Enterococcus faecalis; assay: Antibacterial activity against Enterococcus faecalis ATCC 29212 assessed as inhibition of bacterial growth incubated for 18 hrs by broth microdilution method; format: functional
[19] = system: Enterococcus faecium; assay: Antibacterial activity against vancomycin-resistant Enterococcus faecium assessed as inhibition of bacterial growth incubated for 18 hrs by broth microdilution method; format: functional
[20] = system: Escherichia coli; assay: Antibacterial activity against Escherichia coli ATCC 25922 assessed as inhibition of bacterial growth incubated for 18 hrs by broth microdilution method; format: functional
[21] = system: Klebsiella pneumoniae; assay: Antibacterial activity against Klebsiella pneumoniae ATCC 700603 assessed as inhibition of bacterial growth incubated for 18 hrs by broth microdilution method; format: functional
[22] = system: Pseudomonas aeruginosa; assay: Antibacterial activity against Pseudomonas aeruginosa ATCC 27853 assessed as inhibition of bacterial growth incubated for 18 hrs by broth microdilution method; format: functional
[23] = Induction of hemolysis in horse RBC at 200 uM incubated for 1 hr; format: toxicity, cell-based, Equus caballus, Erythrocyte; conditions: horse red blood cells (erythrocytes), read-out: Activity
[24] = Cytotoxicity against human MRC5 cells assessed as reduction in cell viability incubated for 24 hrs by MTT assay; format: toxicity, cell-based
[25] = Cytotoxicity against human BJ cells assessed as reduction in cell viability incubated for 24 hrs by MTT assay; format: toxicity, cell-based
[26] = Cytotoxicity against human BJ cells assessed as cell viability at 25 ug/ml incubated for 24 hrs by MTT assay; format: toxicity, cell-based; conditions: at 25 µg/mL, read-out: Activity
[27] = system: Staphylococcus aureus; assay: Antibacterial activity against Staphylococcus aureus Newman assessed as inhibition of bacterial growth incubated for 18 hrs by broth microdilution method; format: functional
[28] = system: Streptococcus pneumoniae; assay: Antibacterial activity against Oxacillin-resistant Streptococcus pneumoniae O/19/4541 assessed as inhibition of bacterial growth incubated for 18 hrs by broth microdilution method; format: functional
[29] = system: Streptococcus pneumoniae; assay: Antibacterial activity against macrolides-lincosamides and streptogramins B-resistant Streptococcus pneumoniae O/19/4199 assessed as inhibition of bacterial growth incubated for 18 hrs by broth microdilution method; format: functional

## N#CC(C#N)=NNc1cccc(Cl)c1
[1]
  Activity: 0%
[2]
  Activity: 94.5%
[3]
  Activity: 0.3%
[4]
  Activity: 99%
[5]
  Activity: 6.5%
[6]
  Activity: 88.1%
[7]
  Ratio: 0.33
[8]
  Ratio: 0.34
[9]
  Ratio: 0.29

## O=C(Nc1cccc(Cl)c1)NC1CCN(CCC(Oc2cccc(Cl)c2)c2ccccc2)CC1 (racemic)
[10]
  MIC: 3.12 µg/mL (≈ 6.27 µM)
[11]
  MIC: 3.12 µg/mL (≈ 6.27 µM)
[12]
  MIC: 6.25 µg/mL (≈ 12.5 µM)
[13]
  MIC: 3.12 µg/mL (≈ 6.27 µM)
[14]
  MIC: 3.12 µg/mL (≈ 6.27 µM)
[15]
  MIC: 3.12 µg/mL (≈ 6.27 µM)
[16]
  MIC: 1.56 µg/mL (≈ 3.13 µM)
[17]
  MIC: 1.56 µg/mL (≈ 3.13 µM)
[18]
  MIC: 3.12 µg/mL (≈ 6.27 µM)
[19]
  MIC: 1.56 µg/mL (≈ 3.13 µM)
[20]
  Activity: inactive
[21]
  Activity: inactive
[22]
  Activity: inactive
[23]
  hemolysis at 1 h, 200 µM: < 1%
[24]
  IC50 at 24 h: 6.25 µg/mL (≈ 12.5 µM)
[25]
  IC50 at 24 h: > 25 µg/mL
[26]
  viability at 24 h, 25 ug/ml: 91%

## O=C(NCC1CCN(CCC(Oc2cccc(Cl)c2)c2ccccc2)CC1)Nc1cccc(Cl)c1 (racemic)
[10]
  MIC: 6.25 µg/mL (≈ 12.2 µM)
[11]
  MIC: 1.56 µg/mL (≈ 3.04 µM)
[12]
  MIC: 6.25 µg/mL (≈ 12.2 µM)
[13]
  MIC: 6.25 µg/mL (≈ 12.2 µM)
[14]
  MIC: 3.12 µg/mL (≈ 6.1 µM)
[15]
  MIC: 6.25 µg/mL (≈ 12.2 µM)
[16]
  MIC: 3.12 µg/mL (≈ 6.1 µM)
[17]
  MIC: 3.12 µg/mL (≈ 6.1 µM)
[18]
  MIC: 3.12 µg/mL (≈ 6.1 µM)
[19]
  MIC: 1.56 µg/mL (≈ 3.04 µM)
[20]
  Activity: inactive
[21]
  Activity: inactive
[22]
  Activity: inactive
[23]
  hemolysis at 1 h, 200 µM: 6%
[24]
  IC50 at 24 h: 3.12 µg/mL (≈ 6.1 µM)
[25]
  IC50 at 24 h: 6.25 µg/mL (≈ 12.2 µM)

## O=C(NCC1CCN(CCC(Oc2ccc(C(F)(F)F)cc2)c2ccccc2)CC1)Nc1cccc(Cl)c1 (racemic)
[10]
  MIC: 3.12 µg/mL (≈ 5.72 µM)
[11]
  MIC: 1.56 µg/mL (≈ 2.86 µM)
[12]
  MIC: 12.5 µg/mL (≈ 22.9 µM)
[13]
  MIC: 3.12 µg/mL (≈ 5.72 µM)
[14]
  MIC: 6.25 µg/mL (≈ 11.4 µM)
[15]
  MIC: 3.12 µg/mL (≈ 5.72 µM)
[16]
  MIC: 1.56 µg/mL (≈ 2.86 µM)
[17]
  MIC: 1.56 µg/mL (≈ 2.86 µM)
[18]
  MIC: 3.12 µg/mL (≈ 5.72 µM)
[19]
  MIC: 0.78 µg/mL (≈ 1.43 µM)
[20]
  Activity: inactive
[21]
  Activity: inactive
[22]
  Activity: inactive
[23]
  hemolysis at 1 h, 200 µM: 5%
[24]
  IC50 at 24 h: 3.12 µg/mL (≈ 5.72 µM)
[25]
  IC50 at 24 h: 3.12 µg/mL (≈ 5.72 µM)

## O=C(NCC1CCN(CCC(Oc2ccc(Cl)cc2)c2ccccc2)CC1)Nc1cccc(Cl)c1 (racemic)
[10]
  MIC: 6.25 µg/mL (≈ 12.2 µM)
[11]
  MIC: 3.12 µg/mL (≈ 6.1 µM)
[12]
  MIC: 6.25 µg/mL (≈ 12.2 µM)
[13]
  MIC: 6.25 µg/mL (≈ 12.2 µM)
[14]
  MIC: 3.12 µg/mL (≈ 6.1 µM)
[15]
  MIC: 6.25 µg/mL (≈ 12.2 µM)
[16]
  MIC: 3.12 µg/mL (≈ 6.1 µM)
[17]
  MIC: 3.12 µg/mL (≈ 6.1 µM)
[18]
  MIC: 3.12 µg/mL (≈ 6.1 µM)
[19]
  MIC: 0.39 µg/mL (≈ 0.761 µM)
[20]
  Activity: inactive
[21]
  Activity: inactive
[22]
  Activity: inactive
[23]
  hemolysis at 1 h, 200 µM: 6%
[24]
  IC50 at 24 h: 3.12 µg/mL (≈ 6.1 µM)
[25]
  IC50 at 24 h: 12.5 µg/mL (≈ 24.4 µM)

## O=C(Nc1cccc(Cl)c1)NC1CCN(CCC(Oc2ccc(Cl)cc2)c2ccccc2)CC1 (racemic)
[10]
  MIC: 3.12 µg/mL (≈ 6.27 µM)
[11]
  MIC: 3.12 µg/mL (≈ 6.27 µM)
[12]
  MIC: 6.25 µg/mL (≈ 12.5 µM)
[13]
  MIC: 3.12 µg/mL (≈ 6.27 µM)
[14]
  MIC: 3.12 µg/mL (≈ 6.27 µM)
[15]
  MIC: 3.12 µg/mL (≈ 6.27 µM)
[16]
  MIC: 1.56 µg/mL (≈ 3.13 µM)
[17]
  MIC: 1.56 µg/mL (≈ 3.13 µM)
[18]
  MIC: 3.12 µg/mL (≈ 6.27 µM)
[19]
  MIC: 1.56 µg/mL (≈ 3.13 µM)
[20]
  Activity: inactive
[21]
  Activity: inactive
[22]
  Activity: inactive
[23]
  hemolysis at 1 h, 200 µM: < 1%
[24]
  IC50 at 24 h: 6.25 µg/mL (≈ 12.5 µM)
[25]
  IC50 at 24 h: 12.5 µg/mL (≈ 25.1 µM)

## CC(=O)NC[C@H]1CN(c2ccc(N3CCOCC3)c(F)c2)C(=O)O1 [LINEZOLID]
[10]
  MIC: 3.12 µg/mL (≈ 9.26 µM)
[11]
  MIC: 1.56 µg/mL (≈ 4.62 µM)
[12]
  MIC: 0.78 µg/mL (≈ 2.31 µM)
[13]
  MIC: 3.12 µg/mL (≈ 9.26 µM)
[14]
  MIC: 1.56 µg/mL (≈ 4.62 µM)
[15]
  MIC: 250 µg/mL (≈ 741 µM)
[16]
  MIC: 0.78 µg/mL (≈ 2.31 µM)
[17]
  MIC: 1.56 µg/mL (≈ 4.62 µM)
[18]
  MIC: 1.56 µg/mL (≈ 4.62 µM)
[19]
  MIC: 0.78 µg/mL (≈ 2.31 µM)
[27]
  MIC: 1.56 µg/mL (≈ 4.62 µM)
[28]
  MIC: 1.56 µg/mL (≈ 4.62 µM)
[29]
  MIC: 1.56 µg/mL (≈ 4.62 µM)

## CN[C@H](CC(C)C)C(=O)N[C@H]1C(=O)N[C@@H](CC(N)=O)C(=O)N[C@H]2C(=O)N[C@H]3C(=O)N[C@H](C(=O)N[C@H](C(=O)O)c4cc(O)cc(O)c4-c4cc3ccc4O)[C@H](O)c3ccc(c(Cl)c3)Oc3cc2cc(c3O[C@@H]2O[C@H](CO)[C@@H](O)[C@H](O)[C@H]2O[C@H]2C[C@](C)(N)[C@H](O)[C@H](C)O2)Oc2ccc(cc2Cl)[C@H]1O [VANCOMYCIN]
[10]
  MIC: 0.78 µg/mL (≈ 0.538 µM)
[11]
  MIC: 0.78 µg/mL (≈ 0.538 µM)
[12]
  MIC: 0.39 µg/mL (≈ 0.269 µM)
[13]
  MIC: 0.78 µg/mL (≈ 0.538 µM)
[14]
  MIC: 6.25 µg/mL (≈ 4.31 µM)
[17]
  MIC: 0.78 µg/mL (≈ 0.538 µM)
[18]
  MIC: 0.78 µg/mL (≈ 0.538 µM)
[19]
  MIC: 50 µg/mL (≈ 34.5 µM)
[28]
  MIC: 0.1 µg/mL (≈ 0.069 µM)
